Test results as given in PMC7058788, “GLI1 Inhibitor SRI-38832 Attenuates Chemotherapeutic Resistance by Downregulating NBS1 Transcription in BRAF^V600E Colorectal Cancer” (Frontiers in Oncology, 2020).
“And” between values parts separate entries of the source, which are not always exact repeats. Equal values may be shown once.

What was measured:
[1] = tested on: HT29; assay: COMET assay, DNA damage by tail length; type: cell-based, human; details: 20 μM, 48 h
Protocol: (§1) Cells were treated with/without GANT61 (20 μM), SRI-38832 (20 μM) or 5-FU (20 μM) for 48 h, subsequently trypsinized and washed in PBS before being added to preheated (37°C), low-melting point agarose. The solution was pipetted onto slides pre-coated with 1% agarose. The chilled slides were allowed to lyse for 40 min at 4°C in 2.5 M NaCl,100 mM EDTA (pH 10), 10 mM Tris Base, 1% SDS, 1% Triton X−100 prior to immersion in alkaline electrophoresis solution (300 mM NaOH, 1 mM EDTA, pH 13). After 30 min, slides were placed into a horizontal electrophoresis chamber for ~30 min (1 V/cm at 4°C). The slides were washed with deionized H2O to remove the alkaline buffer, dehydrated in 70% ice–cold EtOH and air-dried overnight. Slides were stained with SYBR-Green and examined by microscopy. Tail length (TL) was used to quantify the DNA damage. Image analysis and quantification has been performed with ImageJ.

[2] = tested on: HCT116; assay: COMET assay, DNA damage by tail length; type: cell-based, human; details: 20 μM, 48 h
Protocol: as §1

[3] = tested on: HT29; assay: Annexin V/PI flow cytometry, cell death/apoptosis; type: cell-based
Protocol: (§2) Cells were treated, in duplicate, as described in the figure legends. At the end of treatment, cells were collected by trypsinization and incubated with Annexin V FITC (BD Biosciences) and PI (Sigma) prior to analysis using a FACS Calibur flow cytometer. Data was analyzed using FlowJo software.

[4] = tested on: CRC; details: 5-FU and its combinational treatment (FOLFOX), in the clinic; cited from earlier work
[5] = tested on: NBS1; assay: Western blot analysis of MRN components and damage/apoptosis markers in HT29 cells; type: cell-based, human; details: HT29, 20 μM, 72 h
Protocol: Cells were seeded in six-well plates and cultured until 70–80% confluent in 10% FBS-supplemented RPMI medium with L-glutamine and maintained at 37°C with 5% CO2. The cells were then treated with/without GANT61, SRI-38832, or 5-FU as indicated in the figure legends, and protein isolates were analyzed by Western blot. Briefly, 15 μg of protein was loaded and separated on a SDS-PAGE gel. Proteins were transferred to polyvinylidene difluoride (PVDF) membranes overnight. Membranes were washed in TBS-T, blotted in primary antibody overnight at 4°C, and subsequently washed and blotted with HRP-linked secondary antibody for 1 h. Membranes were developed and images were taken on an ImageQuant LAS 4000.

[6] = tested on: HCT116; assay: Annexin V/PI flow cytometry, cell death; type: cell-based, human; details: 10 and 20 μM, 72 h; low GLI1 and NBS1
Protocol: as §2

[7] = tested on: SW480; assay: Annexin V/PI flow cytometry, cell death; type: cell-based, human; details: 10 and 20 μM, 72 h; low GLI1 and NBS1
Protocol: as §2

[8] = tested on: HCT8; assay: Annexin V/PI flow cytometry, cell death; type: cell-based, human; details: 10 and 20 μM, 72 h; high GLI1 and NBS1
Protocol: as §2

[9] = tested on: HT29; assay: CellTiter-Glo Luminescent Cell Viability (cell proliferation) assay; type: cell-based, human
Protocol: (§3) Confluent monolayers of cells were trypsinized, and 10,000 cells suspended in 200 μl of medium were added to each well of the 96-well plate. […] The proliferation of the cells was determined using the CellTiter-Glo Luminescent Cell Viability Assay kit (Promega).

[10] = tested on: HCT8; assay: as above; type: cell-based, human; details: for IC50: Homo sapiens, HCT-8, Figure 5B-D, HCT8 (low GLI1 expression), unit inferred, x-axis in μM
Protocol: as §3

[11] = tested on: NBS1 mRNA; assay: NBS1 mRNA qRT-PCR in HT29 cells; type: cell-based, human; details: GANT61 as early as 24 h post treatment
Protocol: Total RNA was extracted by Invitrogen™ PureLink™ RNA Mini Kit (Fisher scientific) and cDNAs were synthesized with the ThermoScript reverse transcriptional system. qRT-PCR was performed to assess the enrichment of the specific proteins along the NBS1 ORF using specific primer pairs: NBS1-primer-1-F:[…],NBS1-primer-1-R: […]. Human GAPDH cDNA was used as an internal control.

[12] = tested on: MRN complex; assay: Confocal microscopy, NBS1 signal and NBS1/MRE11 co-localization in HT29 cells; type: cell-based, human
Protocol: Cells were plated at a density of 50,000 cells/well in six-well plates on coverslips and allowed to attach overnight. Media was removed and cells were treated with/without GANT61 (20 μM) for 48 h. Coverslips were removed and placed in a humidity chamber for fixation by absolute methanol for 10 min at 4°C. Cells were permeabilized with acetone for 1 min at 4°C. After washing with PBS × 3, cells were incubated with the diluted primary antibody overnight at 4°C. Cells were subsequently washed x 3 and incubated with appropriate secondary antibody at room temperature in the dark for 1 h. After washing with PBS, cell nuclei were stained with DAPI at RT for 5–10 min. Confocal images were acquired on a Nikon A1 laser confocal system with a Nikon Eclipse Ti microscope and a 60X Plan Apo objective. Lasers used were 405 nm for blue, 488 nm for green, and 561 nm for red. NIS Elements AR 4.5000 software was used to acquire Z-stacks of each channel sequentially to avoid spectral cross talk. Each slice was captured at a 0.15 μm step. Primary antibodies used were γH2AX (Millipore 1:200), NBS1 (Novus 1:200), and MRE11 (Cell Signaling 1:200). The co-localization index for specific foci and fluorescent intensity were calculated by ImageJ.

[13] = parameters: method as in PMID 29338454; details: cited from earlier work
[14] = target: T1, GLI1 (Homo sapiens, UniProt P08151); assay: ChIP assay, GLI1 enrichment on the NBS1 promoter in HT29 cells; type: cell-based; details: HT29, 20 μM, 24 h
T1 construct: HT29, which express GLI1 and have high basal NBS1 expression; endogenous in cells; host or cells: HT29
T1 sequence (P08151 1-1106): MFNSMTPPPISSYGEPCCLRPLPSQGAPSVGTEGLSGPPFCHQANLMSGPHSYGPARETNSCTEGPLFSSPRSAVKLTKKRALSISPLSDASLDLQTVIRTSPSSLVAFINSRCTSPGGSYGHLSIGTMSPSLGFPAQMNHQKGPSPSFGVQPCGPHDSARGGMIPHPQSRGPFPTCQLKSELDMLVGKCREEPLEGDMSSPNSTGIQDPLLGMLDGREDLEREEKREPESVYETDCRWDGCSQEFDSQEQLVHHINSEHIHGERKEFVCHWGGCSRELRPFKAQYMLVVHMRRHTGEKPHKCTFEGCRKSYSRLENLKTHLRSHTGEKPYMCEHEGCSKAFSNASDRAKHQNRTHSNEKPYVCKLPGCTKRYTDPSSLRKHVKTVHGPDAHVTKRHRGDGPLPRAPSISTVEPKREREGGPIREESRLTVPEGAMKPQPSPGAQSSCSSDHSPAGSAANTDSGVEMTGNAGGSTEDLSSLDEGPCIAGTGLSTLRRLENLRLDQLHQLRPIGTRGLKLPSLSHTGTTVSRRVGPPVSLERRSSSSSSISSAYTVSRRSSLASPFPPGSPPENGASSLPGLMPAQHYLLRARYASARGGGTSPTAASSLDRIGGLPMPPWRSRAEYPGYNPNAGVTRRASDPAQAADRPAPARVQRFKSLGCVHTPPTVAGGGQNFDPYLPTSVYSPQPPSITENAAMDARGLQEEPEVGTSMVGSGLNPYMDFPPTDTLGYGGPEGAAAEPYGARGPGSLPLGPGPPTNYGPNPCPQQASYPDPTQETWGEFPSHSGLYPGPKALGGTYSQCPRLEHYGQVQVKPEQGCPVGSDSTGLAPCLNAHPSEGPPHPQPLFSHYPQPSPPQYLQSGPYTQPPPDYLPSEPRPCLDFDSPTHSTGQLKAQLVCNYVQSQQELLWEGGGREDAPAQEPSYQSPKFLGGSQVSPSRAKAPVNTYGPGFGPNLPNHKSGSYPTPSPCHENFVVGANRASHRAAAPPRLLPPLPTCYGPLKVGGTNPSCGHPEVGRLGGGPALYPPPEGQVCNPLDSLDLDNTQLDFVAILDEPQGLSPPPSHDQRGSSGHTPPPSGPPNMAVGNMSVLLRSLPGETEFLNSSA
Protocol: HT29 cells (2 × 10^6) were seeded in T75 flasks. After overnight attachment, cells were treated with/without GANT61 (20 μM) or SRI-38832 (20 μM) for 24 h. The cells were trypsinized, washed with 1x PBS and fixed with 1.1% formaldehyde for 10 min at RT. Glycine (0.125 M) was added to stop the reaction. Cells were washed with PBS × 1 and lysed using the ChIP kit according to the manufacturer's instructions (Abcam, Ab500). To fragment the DNA, the cells were sonicated (30 s with 30 s cooling repeatedly for 15 cycles) to obtain fragmented DNA from 100 bp to 1 kB which was verified by agarose gel migration. Lysates were subjected to immunoprecipitation overnight at 4°C with 10 μg of anti-human antibodies for GLI1 (Novus) and Histone H3 for positive control provided by the Abcam ChIP kit. The complex was subsequently incubated with Dynabeads protein G (Invitrogen) for 2 h, 4°C, on a rotating wheel. Beads were washed for 10 min at 4°C with low salt buffer (2x TE, 150 mM NaCl, 1% Triton X-100, 0.1% SDS). Beads were then washed for 10 min at 4°C with high salt buffer (2x TE, 500 mM NaCl, 1% Triton X-100, 0.1% SDS). Next, beads were washed for 10 min at 4° with LiCl buffer (1x TE, 1% NP-40, 0.25 M LiCl, 1% deoxycholate). […]

[15] = tested on: BRAF^V600E variant; parameters: method as in PMID 26460303; details: single agent, BRAF^V600E CRC patients; cited from earlier work
[16] = Homo sapiens, HT-29, Figure 5B-D, HT29 (high GLI1 expression), unit inferred, x-axis in μM
[17] = Homo sapiens, HT-29, Figure 5E, comparison on HT29, unit inferred
[18] = Homo sapiens, HT-29, HT29, values in running text

Question: Which results are given for `O=c1[nH]cc(F)c(=O)[nH]1` [5-FU, 5-fluorouracil]?
Answer: induction of DNA damage (comet assay) [1]: did not; tail length relative to control [2]: about 3.5 time of control; sensitivity to 5-FU treatment (cell death) ([3]; 10 and 20 μM, 72 h, high GLI1 and NBS1): resistant; apoptotic cells after 5-FU treatment ([3]; shGLI1 HT29 cells): about 60%; apoptotic cells after 5-FU treatment ([3]; siNBS1 HT29 cells): Over 40%; dead cells after 5-FU treatment ([3]; vector HT29 cells (shGLI1 experiment)): 20%; overall response rate [4]: 10–15%; expression of MRE11 and RAD50 [5]: did not result in any significant decreases; total NBS1 protein level [5]: did not result in any significant decreases; sensitivity to 5-FU treatment (cell death) [6]: highly sensitive; sensitivity to 5-FU treatment (cell death) [7]: highly sensitive; sensitivity to 5-FU treatment (cell death) [8]: resistant; IC50 [9, 16]: 528 µM; IC50 [9, 17]: 525 µM; IC50 [9, 18]: 625 µM; IC50 in HCT8 lower than in HT29 ([10]; HCT8 vs HT29): 5 fold; IC50 [10]: 110 µM

Question: With `CN(C)c1ccccc1CN1CCCN(Cc2ccccc2N(C)C)C1c1ccncc1` [GANT61] as the compound, how does the “NBS1 mRNA level” value [11] read?
Answer: The value was “significantly decreased”.

Question: And the “tail length relative to control” value [1]?
Answer: Its value is 2.5 time of control.

Question: What about the “co-localization of NBS1 and MRE11” value ([12]; HT29, 20 μM) of the same compound?
Answer: Its value is “significant decrease”.

Question: What about the “fluorescent signal of NBS1” value ([12]; HT29, 20 μM (24 h in text, 48 h in legend and method)) of the same compound?
Answer: Its value is “significantly reduced”.

Question: And the stability in vivo [13]?
Answer: The stability in vivo was “hydrolyzed and loses biological activity in vivo”.

Question: What about the “GLI1 binding enrichment on the NBS1 promoter” value [14] of the same compound?
Answer: The value was “significantly reduced”.

Question: What about the “cells rescued from apoptosis after GANT61 treatment by overexpression of any NBS1 vector” value ([3]; GANT61 20 μM, 72 h, NBS1, S343A or S343E overexpressing HT29) of the same compound?
Answer: Its value is ~ 25%.

Question: What about the “apoptotic HT29 cells” value ([3]; time-course, 48 h of treatment) of the same compound?
Answer: Its value is ~40%.

Question: And the “expression of MRE11 and RAD50” value [5]?
Answer: The value was “did not substantially alter”.

Question: And the “total NBS1 protein level” value [5]?
Answer: Its value is “significantly decreased”.

Question: What about the γ-H2AX level [5] of the same compound?
Answer: Its γ-H2AX level is “increased levels”.

Question: What about the IC50 ([9]; Figure 6A, HT29, unit inferred) of the same compound?
Answer: The IC50 was 22 µM.

Question: And the IC50 ([9]; HT29, values in running text)?
Answer: Its IC50 is 21.9 µM and 21 µM.

Question: For `CCCS(=O)(=O)Nc1ccc(F)c(C(=O)c2c[nH]c3ncc(-c4ccc(Cl)cc4)cc23)c1F` [Vemurafenib], which response rate [15] is on record?
Answer: Its response rate is < 5%.

Question: What does the source list for `CS(=O)(=O)c1ccc(C(=O)Nc2ccc(Cl)c(-c3ccccn3)c2)c(Cl)c1` [Vismodegib]?
Answer: IC50 higher than GANT61 ([9]; HT29 cells): 4 fold; IC50 [9, 16]: 78.7 µM; IC50 [9, 17]: 81.4 µM; IC50 [9, 18]: ~80 µM; IC50 [10]: 80.5 µM
